Measurements reported in ChEMBL document CHEMBL1128756, “The discovery of CP-96,021 and CP-96,486, balanced, combined, potent and orally active leukotriene D4 (LTD4)/platelet activating factor (PAF) receptor antagonists” (Bioorg Med Chem Lett, 1995).

How the values were obtained:
[1] = biological target: T1, Cysteinyl leukotriene receptor 1 (Cavia porcellus, UniProt Q2NNR5); test: Displacement of [3H]leukotriene D4 (LTD4) from receptor in guinea pig lung membranes; assay type: cell membranes, Membrane
T1 sequence (Q2NNR5 whole entry): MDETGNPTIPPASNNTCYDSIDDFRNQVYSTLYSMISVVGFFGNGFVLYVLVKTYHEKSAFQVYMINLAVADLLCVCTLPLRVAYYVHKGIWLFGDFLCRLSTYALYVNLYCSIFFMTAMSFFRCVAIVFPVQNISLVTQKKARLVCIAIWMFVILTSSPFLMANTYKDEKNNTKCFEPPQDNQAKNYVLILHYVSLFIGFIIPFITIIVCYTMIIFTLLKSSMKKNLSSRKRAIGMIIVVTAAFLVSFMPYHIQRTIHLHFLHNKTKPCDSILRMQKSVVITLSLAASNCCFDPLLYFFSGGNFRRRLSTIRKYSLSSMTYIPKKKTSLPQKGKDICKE

[2] = test system: Cavia porcellus; test: In vivo bronchoprotective effect against […] induced bronchoconstriction in guinea pigs after intravenous administration; assay type: functional
[3] = test system: Cavia porcellus; test: Combined airway obstructive effect against LTD4 stimulated by aerosolized antigen challenge in guinea pigs after peroral administration; assay type: functional
[4] = biological target: T2, Adenosine receptor A1 (Homo sapiens, UniProt P30542); test: Inhibitory concentration against Adenosine A1 receptor
T2 sequence (P30542 whole entry): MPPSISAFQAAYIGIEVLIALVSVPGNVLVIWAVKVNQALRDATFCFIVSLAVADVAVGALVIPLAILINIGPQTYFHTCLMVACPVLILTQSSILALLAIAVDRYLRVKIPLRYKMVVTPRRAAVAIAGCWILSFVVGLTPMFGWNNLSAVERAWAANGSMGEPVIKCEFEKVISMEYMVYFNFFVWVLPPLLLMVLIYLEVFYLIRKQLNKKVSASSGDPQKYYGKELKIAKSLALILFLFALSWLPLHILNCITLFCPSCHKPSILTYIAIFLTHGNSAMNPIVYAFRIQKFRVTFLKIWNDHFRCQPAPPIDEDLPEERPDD

[5] = biological target: Serotonin 2 (5-HT2) receptor (Homo sapiens, UniProt P41595+P28223+P28335); test: Inhibitory concentration against 5-hydroxytryptamine 2 receptor; assay type: protein assay
[6] = biological target: T3, Adrenergic receptor alpha-2 (Homo sapiens, UniProt P08913+P18825+P18089); test: Inhibitory concentration against Alpha-2 adrenergic receptor; assay type: protein assay
T3 sequence (P08913 whole entry): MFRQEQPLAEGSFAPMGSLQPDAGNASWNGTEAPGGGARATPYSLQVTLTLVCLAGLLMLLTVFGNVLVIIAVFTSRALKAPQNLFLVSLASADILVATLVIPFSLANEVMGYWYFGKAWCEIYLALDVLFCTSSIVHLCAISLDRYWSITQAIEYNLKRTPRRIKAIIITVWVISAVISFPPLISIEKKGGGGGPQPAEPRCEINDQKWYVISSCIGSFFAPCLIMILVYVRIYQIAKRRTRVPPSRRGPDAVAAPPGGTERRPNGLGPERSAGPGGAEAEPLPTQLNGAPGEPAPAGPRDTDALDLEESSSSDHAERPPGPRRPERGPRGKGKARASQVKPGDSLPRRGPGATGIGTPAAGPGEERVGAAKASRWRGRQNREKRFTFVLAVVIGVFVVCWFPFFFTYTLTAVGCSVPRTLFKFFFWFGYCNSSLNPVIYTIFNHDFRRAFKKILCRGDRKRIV
T3 sequence (P18825 whole entry): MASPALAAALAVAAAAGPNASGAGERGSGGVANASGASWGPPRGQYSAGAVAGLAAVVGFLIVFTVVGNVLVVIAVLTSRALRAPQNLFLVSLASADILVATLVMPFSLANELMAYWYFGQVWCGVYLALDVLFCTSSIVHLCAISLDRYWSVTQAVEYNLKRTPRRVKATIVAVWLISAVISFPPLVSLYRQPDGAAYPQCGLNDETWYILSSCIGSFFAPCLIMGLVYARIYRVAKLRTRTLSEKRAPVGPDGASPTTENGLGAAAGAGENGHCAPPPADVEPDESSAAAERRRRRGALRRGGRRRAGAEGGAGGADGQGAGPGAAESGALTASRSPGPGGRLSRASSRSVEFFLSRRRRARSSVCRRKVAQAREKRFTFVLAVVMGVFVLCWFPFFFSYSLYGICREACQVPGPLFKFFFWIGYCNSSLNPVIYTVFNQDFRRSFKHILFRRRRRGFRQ
T3 sequence (P18089 whole entry): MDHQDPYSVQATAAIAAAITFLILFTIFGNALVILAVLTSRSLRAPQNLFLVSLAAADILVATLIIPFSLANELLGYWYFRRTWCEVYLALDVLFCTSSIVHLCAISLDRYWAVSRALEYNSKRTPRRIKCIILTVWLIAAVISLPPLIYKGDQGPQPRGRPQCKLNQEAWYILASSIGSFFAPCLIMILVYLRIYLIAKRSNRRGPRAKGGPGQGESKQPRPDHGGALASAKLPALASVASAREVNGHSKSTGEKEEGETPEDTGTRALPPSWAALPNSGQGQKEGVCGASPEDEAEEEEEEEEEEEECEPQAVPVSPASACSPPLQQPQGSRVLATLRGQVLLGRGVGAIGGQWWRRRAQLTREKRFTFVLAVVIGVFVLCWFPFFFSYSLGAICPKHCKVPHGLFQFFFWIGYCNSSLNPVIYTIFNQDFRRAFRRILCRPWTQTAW

[7] = biological target: GABA-A receptor; anion channel; test: Inhibition of Gamma-aminobutyric acid receptor; assay type: protein-complex assay
[8] = test system: Cavia porcellus; test: In vivo bronchoprotective effect against LTD4 induced bronchoconstriction in guinea pigs after intravenous administration; assay type: functional
[9] = biological target: Mu-type opioid receptor (Homo sapiens, UniProt P35372); test: Inhibitory concentration against Opioid receptor mu 1
Mu-type opioid receptor, sequence (P35372 whole entry): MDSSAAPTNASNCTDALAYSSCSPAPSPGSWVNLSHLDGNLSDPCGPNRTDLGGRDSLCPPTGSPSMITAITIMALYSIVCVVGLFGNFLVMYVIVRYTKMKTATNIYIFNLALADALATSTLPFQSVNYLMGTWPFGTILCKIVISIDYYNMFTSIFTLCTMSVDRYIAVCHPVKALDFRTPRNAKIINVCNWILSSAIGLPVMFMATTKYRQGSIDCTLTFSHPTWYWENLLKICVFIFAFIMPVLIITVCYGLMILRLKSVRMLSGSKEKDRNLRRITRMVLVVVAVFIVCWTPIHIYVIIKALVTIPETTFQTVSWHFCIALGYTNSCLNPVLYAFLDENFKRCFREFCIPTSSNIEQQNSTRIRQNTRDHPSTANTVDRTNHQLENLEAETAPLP

[10] = biological target: Adrenergic receptor beta (Homo sapiens, UniProt P08588+P07550+P13945); test: Inhibitory concentration against Beta adrenergic receptor; assay type: protein assay
[11] = biological target: D(2) dopamine receptor (Homo sapiens, UniProt P14416); test: Inhibitory concentration against Dopamine receptor D2
D(2) dopamine receptor, sequence (P14416 whole entry): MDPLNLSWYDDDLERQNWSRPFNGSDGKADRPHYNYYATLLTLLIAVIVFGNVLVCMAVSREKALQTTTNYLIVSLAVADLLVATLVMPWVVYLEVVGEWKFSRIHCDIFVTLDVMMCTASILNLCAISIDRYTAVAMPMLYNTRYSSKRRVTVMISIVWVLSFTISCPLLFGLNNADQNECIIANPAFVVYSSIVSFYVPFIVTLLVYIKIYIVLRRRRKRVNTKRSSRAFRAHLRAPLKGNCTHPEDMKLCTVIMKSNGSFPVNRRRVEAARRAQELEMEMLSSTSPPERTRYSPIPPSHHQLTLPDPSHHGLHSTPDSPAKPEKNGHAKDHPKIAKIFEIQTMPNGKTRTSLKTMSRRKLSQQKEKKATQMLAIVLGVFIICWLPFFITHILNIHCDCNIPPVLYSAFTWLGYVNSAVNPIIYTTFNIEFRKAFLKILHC

[12] = biological target: T1, Cysteinyl leukotriene receptor 1; test: Displacement of [3H]LTD4 from receptor in guinea pig lung membranes; assay type: cell membranes, Membrane
[13] = biological target: Muscarinic acetylcholine receptor; test: Inhibitory concentration against muscarinic receptor; assay type: protein assay
[14] = Inhibitory concentration against 5-hydroxytryptamine 1 receptor
[15] = biological target: Histamine H1 receptor (Homo sapiens, UniProt P35367); test: Inhibitory concentration against H1 receptor
Histamine H1 receptor, sequence (P35367 whole entry): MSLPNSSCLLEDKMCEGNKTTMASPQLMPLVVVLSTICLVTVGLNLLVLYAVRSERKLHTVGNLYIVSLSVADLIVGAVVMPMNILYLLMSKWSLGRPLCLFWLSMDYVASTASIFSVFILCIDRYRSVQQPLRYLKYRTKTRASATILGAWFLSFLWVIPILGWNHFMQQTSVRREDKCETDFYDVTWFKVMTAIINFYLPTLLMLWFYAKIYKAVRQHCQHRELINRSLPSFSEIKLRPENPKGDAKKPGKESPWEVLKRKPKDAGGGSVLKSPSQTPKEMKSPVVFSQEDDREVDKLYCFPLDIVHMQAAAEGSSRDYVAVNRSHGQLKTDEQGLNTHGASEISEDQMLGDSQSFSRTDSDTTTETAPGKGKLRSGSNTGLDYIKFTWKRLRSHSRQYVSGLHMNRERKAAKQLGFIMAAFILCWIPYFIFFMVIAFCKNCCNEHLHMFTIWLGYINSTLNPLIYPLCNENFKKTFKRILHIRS

[16] = test system: Cavia porcellus; test: In vivo bronchoprotective effect against PAF induced bronchoconstriction in guinea pigs after intravenous administration; assay type: functional
[17] = biological target: T4, Adrenergic receptor alpha-1 (Homo sapiens, UniProt P35348+P25100+P35368); test: Inhibitory concentration against Alpha-1 adrenergic receptor; assay type: protein assay
T4 sequence (P35348 whole entry): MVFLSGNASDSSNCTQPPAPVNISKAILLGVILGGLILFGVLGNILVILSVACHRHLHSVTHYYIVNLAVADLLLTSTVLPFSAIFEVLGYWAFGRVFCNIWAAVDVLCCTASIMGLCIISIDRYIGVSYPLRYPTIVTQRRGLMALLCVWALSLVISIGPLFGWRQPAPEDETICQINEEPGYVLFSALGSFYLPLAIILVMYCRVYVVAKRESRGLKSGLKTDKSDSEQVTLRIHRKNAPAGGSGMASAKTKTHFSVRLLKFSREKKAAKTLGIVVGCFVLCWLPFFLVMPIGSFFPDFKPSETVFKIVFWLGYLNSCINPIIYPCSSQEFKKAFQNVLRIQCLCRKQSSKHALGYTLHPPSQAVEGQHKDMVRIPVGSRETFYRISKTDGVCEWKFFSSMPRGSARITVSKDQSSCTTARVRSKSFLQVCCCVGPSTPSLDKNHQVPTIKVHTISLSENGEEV
T4 sequence (P25100 whole entry): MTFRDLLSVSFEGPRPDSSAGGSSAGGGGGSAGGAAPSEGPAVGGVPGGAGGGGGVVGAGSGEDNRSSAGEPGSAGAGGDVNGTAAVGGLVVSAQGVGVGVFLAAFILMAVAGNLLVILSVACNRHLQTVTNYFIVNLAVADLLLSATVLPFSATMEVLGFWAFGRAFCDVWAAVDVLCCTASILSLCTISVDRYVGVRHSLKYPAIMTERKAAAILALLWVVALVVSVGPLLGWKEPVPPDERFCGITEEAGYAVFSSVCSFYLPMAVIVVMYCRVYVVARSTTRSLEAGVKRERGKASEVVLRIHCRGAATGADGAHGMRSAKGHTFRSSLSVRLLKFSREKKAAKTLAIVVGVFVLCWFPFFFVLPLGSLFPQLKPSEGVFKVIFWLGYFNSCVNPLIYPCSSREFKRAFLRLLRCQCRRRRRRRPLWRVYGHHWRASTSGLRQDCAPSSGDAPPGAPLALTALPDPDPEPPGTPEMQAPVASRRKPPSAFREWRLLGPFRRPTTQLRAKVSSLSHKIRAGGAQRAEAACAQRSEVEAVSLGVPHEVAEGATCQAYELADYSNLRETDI
T4 sequence (P35368 whole entry): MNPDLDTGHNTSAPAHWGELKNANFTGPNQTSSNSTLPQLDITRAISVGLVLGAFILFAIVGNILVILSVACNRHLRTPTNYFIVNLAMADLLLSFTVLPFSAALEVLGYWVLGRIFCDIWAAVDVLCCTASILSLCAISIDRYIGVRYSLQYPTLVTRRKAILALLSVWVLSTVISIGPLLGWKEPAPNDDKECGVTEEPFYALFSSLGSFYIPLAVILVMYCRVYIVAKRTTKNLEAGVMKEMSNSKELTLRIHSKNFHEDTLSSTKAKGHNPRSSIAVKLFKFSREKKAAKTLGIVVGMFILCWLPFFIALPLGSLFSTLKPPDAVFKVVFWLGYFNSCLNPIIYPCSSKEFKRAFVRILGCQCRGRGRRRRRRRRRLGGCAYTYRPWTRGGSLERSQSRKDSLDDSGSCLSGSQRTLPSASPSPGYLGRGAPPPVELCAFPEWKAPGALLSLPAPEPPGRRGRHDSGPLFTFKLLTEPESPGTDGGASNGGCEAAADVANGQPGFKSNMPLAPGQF

SMILES | Ki [1] | ED50 [2] | ED50 [3] | IC50 [4] | IC50 [5] | IC50 [6] | IC50 [7] | ED50 [8] | IC50 [9] | IC50 [10] | IC50 [11] | Ki [12] | IC50 [13] | IC50 [14] | IC50 [15] | ED50 [16] | IC50 [17]
CCOC(=O)C1=C(c2ccc(-n3c(C)nc4cnccc43)cc2)NC(C)=C(C(=O)Nc2ccccn2)C1c1ccccc1Cl (configuration not stated) | > 30 µM | 0.33 mg/kg | 1.9 mg/kg | – | – | – | – | – | – | – | – | – | – | – | – | – | –
Cc1nc2cnccc2n1-c1ccc(OCc2cccc(/C=C/c3ccc4ccc(Cl)cc4n3)c2)cc1 | – | – | 1.7 mg/kg | > 10 µM | > 10 µM | > 10 µM | > 10 µM | 0.27 mg/kg | > 10 µM | > 10 µM | > 10 µM | 0.02 µM | > 10 µM | > 10 µM | > 10 µM | 0.26 mg/kg | > 10 µM
COc1cc(C(=O)NS(=O)(=O)c2ccccc2C)ccc1Cc1cn(C)c2ccc(NC(=O)OC3CCCC3)cc12 [ZAFIRLUKAST] | – | – | 3.5 mg/kg | > 10 µM | – | – | > 10 µM | 0.21 mg/kg | > 10 µM | > 10 µM | > 10 µM | – | – | – | – | – | > 10 µM
Cc1nc2cnccc2n1-c1ccc(OCc2cccc(/C=C/c3ccc4ccccc4n3)c2)cc1 | 0.073 µM | – | – | – | – | – | – | – | – | – | – | – | – | – | – | – | –
Cc1nc2cnccc2n1-c1ccc(OCc2cccc(/C=C/c3nc4cc(F)ccc4s3)c2)cc1 | 0.034 µM | 0.16 mg/kg | 1.8 mg/kg | > 10 µM | > 10 µM | > 10 µM | > 10 µM | 0.46 mg/kg | > 10 µM | > 10 µM | > 10 µM | – | > 10 µM | > 10 µM | > 10 µM | – | > 10 µM
